Source: US7767822B2, “Water-soluble tetrazolium salts” (Bayer Healthcare LLC, priority 2005, dated 2010)
Where two headings read alike, the source gives them in different places.

Columns and labels:
[1] = Absorption spectra of formazans formed from the tetrazolium salts; assay type: physicochemical; details: 100 μM tetrazolium salt in 100 mM potassium phosphate buffer, 5-fold excess ascorbate; compared with HTC-045
Experimental: The compounds prepared and tested for their solubility had somewhat different spectral properties. The absorption spectra of each formazan formed from the tetrazolium salt and tested for solubility in Table 1 was measured with a Hewlett Packard Model 8453 diode-array UV-visible spectrophotometer. Solutions of 100 μM of a tetrazolium salt were prepared in 100 mM potassium phosphate buffer. The formazan spectra were measured after the addition of 5-fold excess ascorbate acid salt to convert the tet salts to their formazans.

[2] = Solubility of tetrazolium salts in 0.2M phosphate buffer; assay type: physicochemical
[3] = 0.2M phosphate buffer, pH ~7.5, room temperature

| Compound | shape of formazan absorbance versus wavelength curve [1] | Solubilility [2] | Solubilility [2, 3] |
| --- | --- | --- | --- |
| 5-Benzo[1,3 dioxol-5-yl]-3-[2-(3-trimethylammonium) propoxy-phenyl]-2(benzothiazol-2-yl)-2 H-tetrazolium bromo nitrite salt [Example 4] | relatively flat |  |  |
| 5-Benzo[1,3 dioxol-5-yl]-3-[2-(3-trimethylammonium) propoxy-phenyl]-2-(5-chloro-4-difluoromethyl-thiazol-2-yl)-2 H-tetrazolium bromo tetrafluoroborate salt [Example 2] | relatively flat | 5 mM |  |
| 5-Benzo[1,3 dioxol-5-yl]-3-[2-(3-trimethylammonium) propoxy-phenyl]-2-(5-chloro-4-difluoromethyl-thiazol-2-yl)-2H-tetrazolium bromo nitrite salt [Example 1] | relatively flat |  |  |
| 5-Benzo[1,3 dioxol-5-yl]-3-[2-(3-trimethylammonium) propoxy-phenyl]-2-(6-methoxynapthylthiazol-2-yl)-2 H-tetrazolium bromo nitrite salt [Example 5] | rising absorbance verses wavelength curve |  |  |
| 5-[4-(3-trimethylammonium) propoxy-3-methoxy-phenyl]-3-[2-(3-trimethylammonium) propoxy-phenyl]-2-(6-ethoxy-benzothiazol-2-yl)-2H-tetrazolium tribromide salt [Example 9] |  |  | 260 mM |
| 5-[4-(3-trimethylammonium)propoxy-3-methoxy-phenyl]-3-[2-(3-trimethylammonium) propoxy-phenyl]-2-(6-bromo-benzothiazol-2-yl)-2H-tetrazolium dibromo nitrite salt [Example 8] | relatively flat |  |  |
| Br.CN(C)CCCOc1ccccc1-[n+]1nc(-c2ccc3c(c2)OCO3)nn1-c1nc(C(F)F)c(Cl)s1.O=N[O-] [Example 3, 5-Benzo[1,3 dioxol-5-yl]-3-[2-(3-dimethylhydrogenammoniun)propoxy-phenyl]-2-(5-chloro-4-difluoromethyl-thiazol-2-yl)-2 H-tetrazolium bromo nitrite salt] | relatively flat | 9 mM |  |
| COc1cc(-c2nn(-c3nc(C(F)F)c(Cl)s3)[n+](-c3ccccc3OCCC[N+](C)(C)C)n2)ccc1OCCC[N+](C)(C)C.O=N[O-].[Br-].[Br-] [Example 6, 5-[4-(3-trimethylammonium)propoxy-3-methoxy-phenyl]-3-[2-(3-trimethylammonium)propoxy-phenyl]-2-(5-chloro-4-difluoromethyl-thiazol-2-yl)-2H-tetrazolium dibromo nitrite salt] | relatively flat |  | 181 mM |
| CCOc1ccc2nc(-n3nc(-c4ccc(OCCC[N+](C)(C)C)c(OC)c4)n[n+]3-c3ccccc3OCCC[N+](C)(C)C)sc2c1.O=N[O-].[Br-].[Br-] [Example 7] | relatively flat | 169 mM |  |
